The source of these data is the supplement of paper PMC10011410.

± gives the standard deviation of the averaged measurements.

Common to all, as to conditions: 24 h
Test [1] relates to U-2 OS. Description: relative cell count vs DMSO (cell painting) (fraction of DMSO control); higher = more cells remaining (less cytotoxic). In outline: (§1)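 U-2 OS cells were seeded at about 1,500 per well in 384-well plates and treated by pin tool for 24 h at 37 °C, usually at six 2-fold concentrations from 20 μM to 625 nM. After staining with MitoTracker, concanavalin A, phalloidin, wheat germ agglutinin, Hoechst and SYTO 14, plates were imaged on an Opera Phenix and features were extracted with CellProfiler and normalized to DMSO cells on the same plate. The activity score is the Mahalanobis distance from DMSO wells, and cell count is given relative to DMSO wells. Each value is the mean of four replicate plates.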

For test [2], the system named is U-2 OS. Kind of test: cell painting activity score (Mahalanobis distance from DMSO wells); higher = stronger morphological phenotype. The method in brief:
as §1

Test [3] deals with U-2 OS. Description: total intracellular glutathione (GSH + GSSG) relative to DMSO (% of control); higher = more glutathione. The protocol:
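Total intracellular glutathione (GSH + GSSG) in U-2 OS cells by GSH/GSSG-Glo after 24 h compound treatment at 5, 10 and 20 uM (some at 40 and 80 uM), as percent of DMSO control. Five technical replicate plates, averaged.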

The subject of test [4] is U-2 OS. Description: intracellular GSH:GSSG ratio (calculated); higher = more reduced glutathione pool. The protocol: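 Intracellular glutathione in U-2 OS cells after 24 h compound treatment at 5, 10 and 20 uM (some at 40 and 80 uM). Total glutathione and GSSG were measured with the GSH/GSSG-Glo kit, and the GSH:GSSG ratio was calculated. Mean of five technical replicate plates.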

In test [5] the test system is U-2 OS. Description: cell viability (CellTiter-Glo) relative to DMSO (% of control); higher = more viable. How it is done:
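Cell viability of U-2 OS cells by CellTiter-Glo after 24 h compound treatment at 5, 10 and 20 uM (some at 40 and 80 uM), measured in parallel with the glutathione assay, as percent of DMSO control. Five technical replicate plates, averaged.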

`O=C1CC(Sc2nnnn2-c2ccccc2)C(=O)N1c1ccc([N+](=O)[O-])cc1` (stereo unspecified): the relative cell count is 1.06 with U-2 OS [1] (0.625 µM); 1.07 with U-2 OS [1] (1.25 µM); 1.12 in the test with U-2 OS [1] (2.5 µM); 1.01 in the test with U-2 OS [1] (5 µM); 0.828 in the test on U-2 OS [1] (10 µM); 0.677 in the test with U-2 OS [1] (20 µM). Besides, the “cell painting activity score” value is 4.41 with U-2 OS [2] (0.625 µM); 4.65 in the test on U-2 OS [2] (1.25 µM); 4.9 with U-2 OS [2] (2.5 µM); 6.88 in the test with U-2 OS [2] (5 µM); 12.5 in the test with U-2 OS [2] (10 µM); 18.1 in the test with U-2 OS [2] (20 µM). The total intracellular glutathione was 117 ± 6.5 with U-2 OS [3] (5 µM), 122 ± 5.5 with U-2 OS [3] (10 µM) and 61.8 ± 13 in the test with U-2 OS [3] (20 µM). Also, the “intracellular GSH:GSSG ratio” value is 26 with U-2 OS [4] (5 µM), 17 in the test with U-2 OS [4] (10 µM) and 7.14 in the test with U-2 OS [4] (20 µM). In addition, the cell viability in the test with U-2 OS [5] (5 µM) is 102 ± 5.5; in the test on U-2 OS [5] (10 µM) it was 104 ± 5.8; with U-2 OS [5] (20 µM), 46.2 ± 11.
Regarding `CC1=C(CO)C(=O)O[C@H](C(C)[C@H]2CC[C@@H]3[C@H]4C[C@H]5O[C@@]56[C@@H](O)C=CC(=O)[C@@]6(C)C4CC[C@@]23C)C1` (stereo partly specified), the relative cell count with U-2 OS [1] (0.625 µM) turned out to be 0.988; in the test on U-2 OS [1] (1.25 µM), 0.352; in the test on U-2 OS [1] (2.5 µM), 0.402; in the test on U-2 OS [1] (5 µM), 0.38; with U-2 OS [1] (10 µM) it was 0.146; in the test on U-2 OS [1] (20 µM), 0.0181. For the same compound, the “cell painting activity score” value with U-2 OS [2] (0.625 µM) came to 10.3; in the test on U-2 OS [2] (1.25 µM), 16.1; in the test on U-2 OS [2] (2.5 µM), 17.1; in the test on U-2 OS [2] (5 µM) it was 17.6; in the test with U-2 OS [2] (10 µM), 29; in the test with U-2 OS [2] (20 µM), 20.3. Besides, the total intracellular glutathione in the test on U-2 OS [3] (5 µM) is 43.6 ± 5.1; in the test with U-2 OS [3] (10 µM), 39.2 ± 4.1; in the test on U-2 OS [3] (20 µM), 32.8 ± 3.3. The “intracellular GSH:GSSG ratio” value is 1.55 with U-2 OS [4] (5 µM), 4.28 in the test with U-2 OS [4] (10 µM) and 0.143 with U-2 OS [4] (20 µM). For the same compound, the cell viability in the test with U-2 OS [5] (5 µM) stood at 55.7 ± 8.4; in the test on U-2 OS [5] (10 µM), 42.7 ± 2; in the test with U-2 OS [5] (20 µM), 59.4 ± 12.
For `COC1=CC=C(S(=O)(O/N=C2C=C(C(C(C)=C\2)=O)C)=O)C=C1`, the relative cell count in the test on U-2 OS [1] (0.625 µM) is 1.01; in the test with U-2 OS [1] (1.25 µM), 0.93; in the test with U-2 OS [1] (2.5 µM), 0.9; with U-2 OS [1] (5 µM), 0.718; in the test on U-2 OS [1] (10 µM) it was 0.17; in the test on U-2 OS [1] (20 µM) it was 0.237. For the same compound, the relative cell count is 0.146 in the test on U-2 OS [1] (40 µM) and 0.0922 in the test with U-2 OS [1] (80 µM). Further, the “cell painting activity score” value amounted to 4.25 in the test with U-2 OS [2] (0.625 µM); 8.9 in the test on U-2 OS [2] (1.25 µM); 10.5 with U-2 OS [2] (2.5 µM); 12 in the test with U-2 OS [2] (5 µM); 16.6 in the test on U-2 OS [2] (10 µM); 24.6 in the test with U-2 OS [2] (20 µM). The figures for the “cell painting activity score” value in the test with U-2 OS [2] (40 µM) and with U-2 OS [2] (80 µM) were 22.8 and 20.4, respectively. For the same compound, the total intracellular glutathione with U-2 OS [3] (5 µM) was 59.9 ± 4; in the test on U-2 OS [3] (10 µM) it was 41.1 ± 5.9; in the test on U-2 OS [3] (20 µM), 6.59 ± 2.2; in the test on U-2 OS [3] (40 µM), 0.79 ± 0.15; with U-2 OS [3] (80 µM) it was 0.604 ± 0.13. The “intracellular GSH:GSSG ratio” value was 4.85 in the test on U-2 OS [4] (5 µM) and 2.61 in the test on U-2 OS [4] (10 µM). Also, the cell viability in the test with U-2 OS [5] (5 µM) was 31.2 ± 1.5; with U-2 OS [5] (10 µM) it was 15.9 ± 2; in the test with U-2 OS [5] (20 µM), 9.58 ± 10; with U-2 OS [5] (40 µM), 0.28 ± 0.061; with U-2 OS [5] (80 µM) it was 0.124 ± 0.018.
Consider `CC(C)([C@](C1=O)(C2=O)C/C=C(C)\C)[C@@H](C[C@]31C[C@@H](C(C)(OC3=C2C(C4=CC(O)=C(C=C4)O)=O)C)C/C=C(C)\C)C/C=C(C)\C`, for which the relative cell count in the test on U-2 OS [1] (0.625 µM) turned out to be 1.21; with U-2 OS [1] (1.25 µM) it was 1.12; in the test on U-2 OS [1] (2.5 µM), 1.19; with U-2 OS [1] (5 µM), 1.15; with U-2 OS [1] (10 µM), 1.04; in the test with U-2 OS [1] (20 µM), 0.492. The “cell painting activity score” value was determined as 3.69 in the test on U-2 OS [2] (0.625 µM); 3.85 in the test with U-2 OS [2] (1.25 µM); 6.36 in the test with U-2 OS [2] (2.5 µM); 7.13 in the test on U-2 OS [2] (5 µM); 13.5 in the test on U-2 OS [2] (10 µM); 18.6 with U-2 OS [2] (20 µM). Moreover, the “intracellular GSH:GSSG ratio” value was 27 with U-2 OS [4] (5 µM), 22.3 in the test with U-2 OS [4] (10 µM), 10.9 with U-2 OS [4] (20 µM) and 17.8 in the test on U-2 OS [4] (80 µM). Besides, the cell viability in the test with U-2 OS [5] (5 µM) turned out to be 99.7 ± 2.4; in the test with U-2 OS [5] (10 µM) it was 62.6 ± 14; in the test with U-2 OS [5] (20 µM) it was 43.4 ± 17; in the test with U-2 OS [5] (40 µM), 0.646 ± 0.18; with U-2 OS [5] (80 µM), 0.745 ± 0.2.
